Marks after values point to notes of the source that are not given here. Where no end group is shown, it is not given here.
What was measured:
Streptococcus sanguis = assay: Inhibition of lactic acid production; assay type: cell-based; conditions: S. sanguis; 1 hour in 10 mM PPB with glucose
Procedure: (§1) All peptides according to the invention were tested for their capacity to inhibit the lactic acid production of the bacteria Streptococcus sanguis, Streptococcus mutans, Streptococcus salivarius and Lactobacillus rhamnosus. The formation of lactic acid is a measure for the metabolic activity. For this purpose cultures of bacteria cells were incubated for 1 hour in 10 mM PPB with 0.5 glucose and different concentrations of the peptides. The formation of lactic acid was monitored by means of spectrophotometry.

Lactobacillus rhamnosus = assay: Inhibition of lactic acid production; assay type: cell-based; conditions: L. rhamnosus; 1 hour in 10 mM PPB with glucose
Procedure: as §1

Streptococcus salivarius = assay: Inhibition of lactic acid production; assay type: cell-based; conditions: S. salivarius; 1 hour in 10 mM PPB with glucose
Procedure: as §1

Streptococcus mutans = assay: Inhibition of lactic acid production; assay type: cell-based; conditions: S. mutans; 1 hour in 10 mM PPB with glucose
Procedure: as §1

Torulopsis glabrata = assay: Growth inhibition on agar with spotted peptide; assay type: cell-based; design: key: “+” designates full growth inhibition; “+/−” designates partial inhibition; “−” signifies no inhibition; conditions: T. glabrata on agar, 10 μg peptide spotted
Procedure: (§2) The growth of the yeast Candida albicans, Torulopsis glabrata and meticillin-resistant Staphylococcus aureus (MRSA) was tested by growing them on agar on which 10 μg of each of the peptides according to the invention was spotted. […] “+” designates full growth inhibition, “+/−” designates partial inhibition and “−” signifies no inhibition.

Candida albicans = assay: Growth inhibition on agar with spotted peptide; assay type: cell-based; design: key: “+” designates full growth inhibition; “+/−” designates partial inhibition; “−” signifies no inhibition; conditions: C. albicans on agar, 10 μg peptide spotted
Procedure: as §2

[1] = tested on: meticillin-resistant Staphylococcus aureus (MRSA); assay: Growth inhibition on agar with spotted peptide; assay type: cell-based; design: key: “+” designates full growth inhibition; “+/−” designates partial inhibition; “−” signifies no inhibition; conditions: 10 μg peptide spotted
Procedure: as §2

[2] = tested on: Streptococcus mutans (R9); assay: Antibacterial activity against monocultures in vitro (viability counts); assay type: cell-based; conditions: 0.5 h, 100 μg/ml
Procedure: (§3) Monocultures of the bacteria Streptococcus mutans (R9), Strentococcus sanguis (SB 179), Streptococcus salivarius (SS 196), Actinomyces naeslundii (WVU 627), Fusobacterium nucleatum (ATCC 10953), Prevotella intermedia ([…]) and Veillonella parvula (ATCC 17745) were cultured to a late log phase in BHI (Difco), washed three times in 10 mM potassium phosphate buffer (PPB) and diluted to a suspension of 10^6 CFU/ml. […] The control treatment was performed in 10 mM without peptide.

[3] = tested on: Fusobacterium nucleatum (ATCC 10953); assay: as above; assay type: cell-based; conditions: 0.5 h, 100 μg/ml
Procedure: as §3

[4] = tested on: Streptococcus salivarius (SS 196); assay: as above; assay type: cell-based; conditions: 0.5 h, 100 μg/ml
Procedure: as §3

[5] = tested on: Strentococcus sanguis (SB 179); assay: as above; assay type: cell-based; conditions: Streptococcus sanguis, 0.5 h, 100 μg/ml
Procedure: as §3

[6] = tested on: Actinomyces naeslundii (WVU 627); assay: as above; assay type: cell-based; conditions: 0.5 h, 100 μg/ml
Procedure: as §3

[7] = tested on: Veillonella parvula (ATCC 17745); assay: as above; assay type: cell-based; conditions: 0.5 h, 100 μg/ml
Procedure: as §3

Cryptococcus neoformans = assay: microbe, parasite or virus in culture; conditions: pH 7
Procedure: (§4) 5*10^6 cells of Candida pseudotropicalis, Candida albicans 10231, Cryptococcus neoformans, Candida krusei, Candida parapsilosis, Candida glabrata and Candida albicans 32354 and an ergosterol-deficient mutant thereof were incubated for one and a half hours at 37° C. in the presence of a dilution series of a peptide according to the invention or amphotericin B in 1 mM potassium phosphate buffer, pH 7.0. The viability was determined by plating out. Used as positive control was synthetic PGLa (“Protein beginning with Glycine and ending with Leucin-amide”, with the amino acid sequence […]-amide).

Candida glabrata = assay: microbe, parasite or virus in culture; conditions: pH 7
Procedure: as §4

Candida albicans 32354 = assay: microbe, parasite or virus in culture; conditions: 32354, pH 7
Procedure: as §4

Candida albicans 10231 = assay: microbe, parasite or virus in culture; conditions: 10231, pH 7
Procedure: as §4

Candida krusei = assay: microbe, parasite or virus in culture; conditions: pH 7
Procedure: as §4

Candida parapsilosis = assay: microbe, parasite or virus in culture; conditions: pH 7
Procedure: as §4

Candida pseudotropicalis = assay: microbe, parasite or virus in culture; conditions: pH 7
Procedure: as §4

[8] = tested on: Prevotella intermedia (T588); assay: Antibacterial activity against monocultures in vitro (viability counts); assay type: cell-based; conditions: 0.5 h, 100 μg/ml
Procedure: as §3

[9] = tested on: bacteria from disrupted plaque; assay: Antimicrobial activity on oral bacteria; assay type: cell-based; conditions: 0.5 h, 100 μg/ml
Source text: (§5) In order to determine whether the peptides according to the invention are also active against bacteria such as are encountered in the mouth, bacteria were collected from saliva and plaque. Saliva was shaken on a vortex mixer and centrifuged.

[10] = tested on: bacteria from cultured plaque; assay: Antimicrobial activity on oral bacteria; assay type: cell-based; conditions: 0.5 h, 100 μg/ml
Source text: as §5

[11] = tested on: bacteria collected from saliva; assay: Antimicrobial activity on oral bacteria; assay type: cell-based; conditions: 0.5 h, 100 μg/ml
Source text: as §5

[12] = tested on: bacteria collected from plaque; assay: Antimicrobial activity on oral bacteria; assay type: cell-based; conditions: 0.5 h, 100 μg/ml
Source text: as §5

[13] = tested on: Yersinia enterocolitica (PYv+); assay: Killing of Yersinia by peptide 10 (CFU over time); assay type: cell-based; conditions: 50 μg/ml, CFU at 0, 1, 2 and 3 hours (FIG. 3B)
Procedure: (§6) Peptide 10 was added in a concentration of 50 μg/ml to a culture with 10^4 Salmonella typhimurium bacteria. For control purposes a culture to which nothing was added was included as blank. The number of CFU was determined at the points in time 0, 1, 2 and 3 hours. The same was done with Yersinia enterocolitica (PYv+). […] Particular peptides are also found to have a killing effect on micro-organisms which are resistant to antimicrobial agents used at present.

Salmonella typhimurium = assay: Killing of Salmonella by peptide 10 (CFU over time); assay type: cell-based; conditions: 50 μg/ml, culture with 10^4 Salmonella typhimurium, CFU at 0, 1, 2 and 3 hours (FIG. 3A)
Procedure: as §6

Compound | inhibition of lactic acid production (Streptococcus sanguis) | inhibition of lactic acid production (Lactobacillus rhamnosus) | inhibition of lactic acid production (Streptococcus salivarius) | inhibition of lactic acid production (Streptococcus mutans) | growth inhibition (Torulopsis glabrata) | growth inhibition (Candida albicans) | growth inhibition [1] | % reduction in viability counts [2] | % reduction in viability counts [3] | % reduction in viability counts [4] | % reduction in viability counts [5] | % reduction in viability counts [6] | % reduction in viability counts [7] | IC50 values (50% of the inoculum is killed) (Cryptococcus neoformans) [µg/mL] | IC50 values (50% of the inoculum is killed) (Candida glabrata) [µg/mL] | IC50 values (50% of the inoculum is killed) (Candida albicans 10231) [µg/mL] | IC50 values (50% of the inoculum is killed) (Candida krusei) [µg/mL] | IC50 values (50% of the inoculum is killed) (Candida parapsilosis) [µg/mL] | IC50 values (50% of the inoculum is killed) (Candida pseudotropicalis) [µg/mL] | % reduction in viability counts [8] | also measured
C[C@H](NC(=O)[C@H](Cc1cnc[nH]1)NC(=O)[C@H](CO)NC(=O)[C@@H](N)CC(=O)O)C(=O)N[C@@H](CCCCN)C(=O)N[C@@H](CCCNC(=N)N)C(=O)N[C@@H](Cc1cnc[nH]1)C(=O)N[C@@H](Cc1cnc[nH]1)C(=O)NCC(=O)N[C@@H](Cc1ccc(O)cc1)C(=O)N[C@@H](CCCCN)C(=O)N[C@@H](CCCNC(=N)N)C(=O)N[C@@H](CCCCN)C(=O)N[C@@H](Cc1ccccc1)C(=O)N[C@@H](Cc1cnc[nH]1)C(=O)N[C@@H](CCC(=O)O)C(=O)N[C@@H](CCCCN)C(=O)N[C@@H](Cc1cnc[nH]1)C(=O)N[C@@H](Cc1cnc[nH]1)C(=O)N[C@@H](CO)C(=O)N[C@@H](Cc1cnc[nH]1)C(=O)N[C@@H](CCCNC(=N)N)C(=O)NCC(=O)N[C@@H](Cc1ccc(O)cc1)C(=O)O [histatin 5, reference compound] | − (“−” signifies no inhibition of lactic acid formation at >100 μg/ml peptide) | − (“−” signifies no inhibition of lactic acid formation at >100 μg/ml peptide) | − (“−” signifies no inhibition of lactic acid formation at >100 μg/ml peptide) | − (“−” signifies no inhibition of lactic acid formation at >100 μg/ml peptide) | − | − | − | −49.5% | 49.3% | 38.3% | 69.5% | −11.6% | 26.9% |  |  |  |  |  |  |  | 
GHMASKGAIAGKIAKVALKAL-NH2 [positive control peptide] |  |  |  |  |  |  |  | >99.9% | >99.9* % | >99.9* % | >99.9* % | >99.9* % | >99.9* % | 0.5 | 9 | 1 | 1 | 1 | 1 | 98.0% | IC50 values (50% of the inoculum is killed) (Candida albicans 32354): 1 µg/mL; % reduction in viability counts, total Gram-negative average [9]: 45.9%; % reduction in viability counts, total aerobic average [9]: 41.7%; % reduction in viability counts, total anaerobic average [9]: 68.5%; % reduction in viability counts, total Gram-negative average [10]: 83.7%; % reduction in viability counts, total aerobic average [10]: 20.6%; % reduction in viability counts, total anaerobic average [10]: 87.2%; % reduction in viability counts, total Gram-negative average [11]: 97.7%; % reduction in viability counts, total aerobic average [11]: 60.1%; % reduction in viability counts, total anaerobic average [11]: 73.2%; % reduction in viability counts, total Gram-negative average [12]: 84.0%; % reduction in viability counts, total aerobic average [12]: 58.5%; % reduction in viability counts, total anaerobic average [12]: 51.5%
KRLFKELKFSLRKY-OH [peptide 3, KRLFKELKFSLRKY] | + (“+” designates full inhibition at 4-20 μg/ml peptide) | + (“+” designates full inhibition at 4-20 μg/ml peptide) | + (“+” designates full inhibition at 4-20 μg/ml peptide) | + (“+” designates full inhibition at 4-20 μg/ml peptide) | + | + | +/− | >99.9* % | 92.9 (3.00)* % | >99.9* % | 99.6 (0.30)* % | >99.9* % | >99.9* % |  |  |  |  |  |  | −57.8 (77.9) % | 
KRLFKKLLFSLRKY [peptide 10, KRLFKKLLFSLRKY] | + (“+” designates full inhibition at 4-20 μg/ml peptide) | + (“+” designates full inhibition at 4-20 μg/ml peptide) | + (“+” designates full inhibition at 4-20 μg/ml peptide) | + (“+” designates full inhibition at 4-20 μg/ml peptide) | + | + | + |  |  |  |  |  |  |  |  |  |  |  |  |  | number of bacteria (CFU) after adding peptide [13]: below the detection limit; number of bacteria (CFU) after adding peptide (Salmonella typhimurium): below the detection limit
SSSKEENRIIPGGI [negative control, SSSKEENRIIPGGI] |  |  |  |  |  |  |  |  |  |  |  |  |  | >67 | >67 | >67 | >67 | >67 | >67 |  | 

Source: US6638531B1, “Antimicrobial peptides” (priority 1998, dated 2003)
